One assay deals with cloned GLP-1 receptor. To be noted: transfected cells; cited from earlier work.
The subject of assay [1] is MI-induced rat model. In words: Whole body composition, heart, lung weight and infarct size in rats with CHF after LAD ligation. The format is in vivo, Sprague-Dawley rats. To be noted: for B.W / Fat mass / Fluid mass / Infarct size / LV weight / LV weight/B.W. / Lean mass / Lung weight / Lung weight/B.W. / RV weight / RV weight/B.W.: 13th week of MI, mean ± SEM. As to the method: (§1) Male Sprague-Dawley® rats (250-300 g) are anesthetized by using 5% isoflurane and a left thoracotomy was performed. The left main anterior descending artery (LAD) was ligated to induce myocardial infarction. In addition, sham animals (n=10) were subjected to the same surgical procedure without ligation of the LAD.
(§2) After two weeks, rats were treated with 2.5 pmol/kg/min GLP-1 (n=11) (GLPL), 25 pmol/kg/min GLP-1 (n=12) (GLPH), 1.67 pmol/kg/min an exendin agonist, AC3174, (n=12) (AC3174L), 5 pmol/kg/min exendin agonist (n=7) (AC3174H), or vehicle (n=14) via subcutaneous infusion for 11 weeks. Echocardiography was performed at the 3rd, 5th, 9th, and 13th week of myocardial infarction. Left ventricular (LV) end systolic dimension (ESD) and diastolic dimension (EDD), LV systolic volume and diastolic volume, left atrial volume were recorded. At the 13th week of MI, the hearts were excised, the LV mass were weighed and LV mass/body weight ratio was determined.

Assay [2] concerns MI-induced rat model. Kind of assay: Treadmill test, plasma lactate and insulin sensitivity in rats after myocardial infarction. Format: in vivo, Sprague-Dawley rats.
For assay [3], the system named is MI-induced rat model. In words: Echocardiography and cardiac function (E/A ratio, LVEDP, cardiac output, +dp/dtmax, LV dimensions) in rats after myocardial infarction. The format is in vivo, Sprague-Dawley rats. As for the experimental part: as §1, §2
Where [4] appears, read: GLPH: GLP-1 25 pmol/kg/min s.c. infusion 11 weeks.
Where [5] appears, read: GLPL: GLP-1 2.5 pmol/kg/min s.c. infusion 11 weeks.

On to “exendin[9-39]: truncated exendin peptide, a carboxyamidated molecule, antagonist of GLP-1”, for which the “action at the cloned GLP-1 receptor (cAMP)” value with cloned GLP-1 receptor is “antagonist”.
GLP-1 (7-36) amide: the “reduction of infarct size compared to the control group” value in the assay on MI-induced rat model [1] (25 pmol/kg/min s.c. infusion, p<0.05) is reported as 30%. Further, in the assay on MI-induced rat model [1] (setting [4]), the B.W stood at 518 ± 12 g, the Fat mass stood at 51 ± 9 g, the Fluid mass is 331 ± 15 g and the Infarct size is recorded as 29 ± 2%. Also, in the assay with MI-induced rat model [1] (setting [4]), the LV weight stood at 1.13 ± 0.03 g, the “LV weight/B.W.” value is given as 0.22 ± 0.01 %, the Lean mass is 35 ± 2 g and the Lung weight is recorded as 1.66 ± 0.13 g. Besides, in the assay on MI-induced rat model [1] (setting [4]), the “Lung weight/B.W.” value is 0.32 ± 0.02 %, the RV weight is 0.23 ± 0.01 g and the “RV weight/B.W.” value amounted to 0.04 ± 0.00 %. In the assay with MI-induced rat model [1] (setting [5]), this substance had a B.W of 523 ± 14 g, a Fat mass of 45 ± 6 g, a Fluid mass of 332 ± 11 g and an Infarct size of 30 ± 2%. In the assay on MI-induced rat model [1] (setting [5]), the LV weight is recorded as 1.26 ± 0.05 g, the “LV weight/B.W.” value worked out at 0.24 ± 0.01%, the Lean mass came out at 37 ± 2 g and the Lung weight was 1.94 ± 0.35 g. Further, in the assay with MI-induced rat model [1] (setting [5]), the “Lung weight/B.W.” value is listed as 0.37 ± 0.07%, the RV weight is 0.22 ± 0.01 g and the “RV weight/B.W.” value amounted to 0.04 ± 0.00 %. In the assay on MI-induced rat model [1] (chronic treatment), the “effect on LV weight (summary)” value is given as “attenuated” and the “effect on infarction size (summary)” value is “reduced”. In addition, in the assay with MI-induced rat model [2] (at each dose, treadmill test), the “effect on exercise capacity (EC)” value is “significantly improved” and the “effect on exercise efficiency (EC/VO2)” value is reported as “significantly improved”. Further, in the assay on MI-induced rat model [2] (chronic treatment), the “effect on baseline plasma lactate” value is recorded as “attenuated”, the “effect on exercise capacity/peak lactate ratio” value was “improved” and the “effect on insulin sensitivity” value was “improved”. For the same substance, the “effect on the increase of E/A ratio during CHF progression” value in the assay on MI-induced rat model [3] (at each dose, s.c. infusion 11 weeks, 13 weeks after MI, vs control (+116% vs sham)) is on record as “prevented increases”. Besides, the “effect on enlargement of LV chamber” value in the assay with MI-induced rat model [3] (chronic treatment) is “slowed”. Also, in the assay on MI-induced rat model [3] (s.c. infusion 11 weeks, control reduced by 19% vs sham), the “effect on cardiac output” value is reported as “normalized”. Besides, the “effect on contractility (+dp/dtmax)” value with MI-induced rat model [3] (s.c. infusion 11 weeks, control reduced by 24% vs sham) was “normalized”. For the same substance, the “effect on remodeling (LV mass, LV end diastolic dimension and systolic dimension increase)” value in the assay with MI-induced rat model [3] (s.c. infusion 11 weeks, progression of CHF) is recorded as “significantly reduced”. In the assay with MI-induced rat model [3] (s.c. infusion 11 weeks, vehicle group +97% vs sham), the “effect on LV end diastolic pressure (LVEDP) elevation” value is “eliminated”.
